According to ChEMBL document CHEMBL5154693, “N-Methylpropargylamine-Conjugated Hydroxamic Acids as Dual Inhibitors of Monoamine Oxidase A and Histone Deacetylase for Glioma Treatment” (J Med Chem, 2022):
Calls of active or inactive are those of the source. The rule behind the calls is not given here.

Assays:
GL26 [1] = assay: Antitumor activity against mouse GL26 cells implanted in C57BL6 mouse assessed as reduction in tumor size at 50 mg/kg, ip daily measured for 10 days by bioluminescence assay; format: functional, organism-based; settings: time 10.0 day
U-251 [2] = assay: Cytotoxicity against human U251 cells assessed as inhibition of cell growth incubated for 48 hrs by MTT assay; format: functional, cell-based; settings: DDE = dose-dependent effect
Histone deacetylase 2 = Histone deacetylase 2 (Homo sapiens, UniProt Q92769); assay: Inhibition of human HDAC2 (379 to 382 residues) using RHKKAc-AMC fluorogenic peptide as substrate by fluorescence assay
Mus musculus [3] = assay: In vivo inhibition of MAO-A in mouse xenografted with mouse GL26 assessed as decrease in MAO activity in tumor at 25 mg/kg, ip administered for 10 days by bioluminescence assay; format: functional, organism-based; settings: time 10.0 day
[4] = (§1) In vivo inhibition of MAO-A in mouse xenografted with mouse GL26 assessed as decrease in MAO activity in tumor at 50 mg/kg by radiometric analysis; format: functional; parameters: scale not given: the % may be the effect or the level left
[5] = molecular target: Lysine-specific histone demethylase 1A (Homo sapiens, UniProt O60341); assay: Inhibition of human LSD1 assessed as demethylase activity of LSD1 using Histone H3(1-21)K4me2 peptide as substrate incubated for 30 mins followed by substrate addition by amplex red dye based HRP-coupled assay
Mus musculus [6] = assay: In vivo inhibition of MAO-A in C57BL6 mouse xenografted with mouse GL26 cells as decrease in MAO activity in brain at 50 mg/kg, ip by radiometric analysis; format: functional, organism-based
[7] = molecular target: T1, Protein deacetylase HDAC6 (Homo sapiens, UniProt Q9UBN7); assay: Inhibition of human HDAC6 (379 to 382 residues) using RHKKAc fluorogenic peptide as substrate by fluorescence assay
T1 sequence (Q9UBN7 whole entry): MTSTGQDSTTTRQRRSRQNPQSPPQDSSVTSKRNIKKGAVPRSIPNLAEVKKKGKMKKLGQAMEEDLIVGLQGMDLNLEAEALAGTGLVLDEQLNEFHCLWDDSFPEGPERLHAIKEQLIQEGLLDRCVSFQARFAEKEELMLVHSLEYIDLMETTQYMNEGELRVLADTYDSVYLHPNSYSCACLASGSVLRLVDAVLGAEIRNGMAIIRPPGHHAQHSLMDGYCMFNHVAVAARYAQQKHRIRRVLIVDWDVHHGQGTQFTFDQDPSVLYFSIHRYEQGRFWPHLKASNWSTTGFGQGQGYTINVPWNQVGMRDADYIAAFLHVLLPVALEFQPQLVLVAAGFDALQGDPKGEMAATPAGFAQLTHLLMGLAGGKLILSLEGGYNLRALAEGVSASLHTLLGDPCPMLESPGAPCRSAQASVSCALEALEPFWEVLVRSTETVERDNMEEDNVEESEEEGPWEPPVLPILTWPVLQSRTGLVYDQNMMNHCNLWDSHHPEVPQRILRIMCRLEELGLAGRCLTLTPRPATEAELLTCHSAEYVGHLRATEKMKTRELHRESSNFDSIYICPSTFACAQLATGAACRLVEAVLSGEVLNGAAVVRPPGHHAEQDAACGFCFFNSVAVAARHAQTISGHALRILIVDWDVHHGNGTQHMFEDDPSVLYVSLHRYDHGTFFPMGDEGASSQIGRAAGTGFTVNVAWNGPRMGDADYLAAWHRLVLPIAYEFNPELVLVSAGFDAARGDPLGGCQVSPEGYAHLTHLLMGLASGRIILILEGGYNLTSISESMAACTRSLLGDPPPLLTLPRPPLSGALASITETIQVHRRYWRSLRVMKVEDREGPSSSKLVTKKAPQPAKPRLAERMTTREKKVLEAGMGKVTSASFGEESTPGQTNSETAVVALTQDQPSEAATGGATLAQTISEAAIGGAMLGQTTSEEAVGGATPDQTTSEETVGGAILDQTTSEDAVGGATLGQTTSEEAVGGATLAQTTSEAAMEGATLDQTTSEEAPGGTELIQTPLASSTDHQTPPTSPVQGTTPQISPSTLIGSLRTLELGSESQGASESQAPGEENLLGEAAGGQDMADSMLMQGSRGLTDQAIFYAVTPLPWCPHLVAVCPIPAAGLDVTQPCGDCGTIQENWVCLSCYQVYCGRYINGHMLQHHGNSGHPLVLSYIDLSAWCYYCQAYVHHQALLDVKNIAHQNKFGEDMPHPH

[8] = Toxicity in C57BL6 mouse xenografted with mouse GL26 cells as assessed as last day of survival at 50 mg/kg, ip for 14 days treatment started at 5 days post-infection (Rvb=14 days); format: organism-based; settings: in vivo, 336 h, time 14 day
[9] = Toxicity in mouse bearing intracranial tumor assessed as last day of survival at 25 mg/kg, ip treatment started at 7 dpi (Rvb=19 days); format: organism-based; settings: in vivo, 456 h
[10] = Toxicity in mouse bearing intracranial tumor assessed as assessed as median survival time at 50 mg/kg, ip for 14 days treatment started at 5 days post-infection (Rvb=12.8 days); format: organism-based; settings: in vivo, 336 h, time 14 day
[11] = molecular target: T2, Amine oxidase [flavin-containing] A (Homo sapiens, UniProt P21397); assay: Inhibition of MAO-A (unknown origin) expressed in mouse GL26 cells using 14C 5-hydroxytryptamine as substrate pre-incubated for 20 mins followed by substrate addition measured after 20 mins by liquid scintillation spectroscopy; format: cell-based
T2 sequence (P21397 whole entry): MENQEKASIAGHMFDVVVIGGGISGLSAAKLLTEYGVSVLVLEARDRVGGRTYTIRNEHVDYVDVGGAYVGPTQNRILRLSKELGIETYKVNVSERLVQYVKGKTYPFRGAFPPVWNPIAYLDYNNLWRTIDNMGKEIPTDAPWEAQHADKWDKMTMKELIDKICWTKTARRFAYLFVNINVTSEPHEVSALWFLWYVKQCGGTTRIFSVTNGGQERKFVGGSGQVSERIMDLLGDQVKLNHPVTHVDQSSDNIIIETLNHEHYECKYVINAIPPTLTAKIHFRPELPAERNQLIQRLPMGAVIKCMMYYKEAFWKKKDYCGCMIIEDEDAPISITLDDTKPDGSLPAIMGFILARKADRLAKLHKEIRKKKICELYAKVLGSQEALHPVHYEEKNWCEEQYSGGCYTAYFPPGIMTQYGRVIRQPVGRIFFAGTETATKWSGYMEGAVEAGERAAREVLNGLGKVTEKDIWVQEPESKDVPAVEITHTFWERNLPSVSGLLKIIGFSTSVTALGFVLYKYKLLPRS

[12] = Toxicity in mouse bearing intracranial tumor assessed as median survival time at 50 mg/kg, ip for 10 days (Rvb= 13.8 days); format: organism-based; settings: in vivo, 240 h, time 10 day
[13] = Toxicity in mouse bearing intracranial tumor assessed as assessed as median survival time at 25 mg/kg, ip treatment started at 7 dpi (Rvb=18.25 days); format: organism-based; settings: in vivo, 438 h
Mus musculus [14] = assay: In vivo inhibition of MAO-A in mouse xenografted with mouse GL26 assessed as decrease in MAO activity in brain at 25 mg/kg, ip administered for 10 days by bioluminescence assay; format: functional, organism-based; settings: time 10.0 day
[15] = Cytotoxicity against mouse GL26 cells assessed as inhibition of cell growth incubated for 48 hrs by MTT assay; format: functional, cell-based; settings: GL26, 48 h
Histone deacetylase 1 = Histone deacetylase 1 (Homo sapiens, UniProt Q13547); assay: Inhibition of human HDAC1 (379 to 382 residues) using RHKKAc-AMC fluorogenic peptide as substrate by fluorescence assay
U-251 [16] = assay: cells; format: functional, cell-based; settings: Homo sapiens, U-251, 48 h
Description: Cytotoxicity against human TMZ-sensitive U251 cells assessed as inhibition of cell growth incubated for 48 hrs by MTT assay

U-251 [17] = assay: cells; format: functional, cell-based; settings: Homo sapiens, U-251, 48 h; remark: listed apart in the source
Description: Cytotoxicity against human TMZ-resistant U251 cells assessed as inhibition of cell growth incubated for 48 hrs by MTT assay

Histone deacetylase 8 = molecular target: T3, Histone deacetylase 8 (Homo sapiens, UniProt Q9BY41); assay: Inhibition of human HDAC8 (379 to 382 residues) using RHKKAcKAc-AMC fluorogenic peptide as substrate by fluorescence assay
T3 sequence (Q9BY41 whole entry): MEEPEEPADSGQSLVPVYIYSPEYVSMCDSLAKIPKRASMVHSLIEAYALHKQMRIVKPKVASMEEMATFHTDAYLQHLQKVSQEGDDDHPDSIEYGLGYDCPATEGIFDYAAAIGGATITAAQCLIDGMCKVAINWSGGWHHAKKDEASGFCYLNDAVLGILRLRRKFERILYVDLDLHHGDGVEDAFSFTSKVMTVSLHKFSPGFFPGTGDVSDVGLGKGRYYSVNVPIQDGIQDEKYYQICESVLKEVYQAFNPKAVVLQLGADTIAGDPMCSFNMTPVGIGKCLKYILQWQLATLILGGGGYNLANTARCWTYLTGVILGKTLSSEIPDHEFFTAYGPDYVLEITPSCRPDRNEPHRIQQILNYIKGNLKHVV

[18] = Toxicity in mouse bearing intracranial tumor assessed as last day of survival at 50 mg/kg,ip for 10 days (Rvb=16 days); format: organism-based; settings: in vivo, 240 h, time 10 day
[19] = Toxicity in mouse bearing intracranial tumor assessed as last day of survival at 50 mg/kg, ip in presence of clorgyline for 10 days (Rvb=16 days); format: organism-based; settings: in vivo, 240 h, time 10 day
[20] = Toxicity in mouse bearing intracranial tumor assessed as last day of survival at 25 mg/kg, ip in presence of clorgyline for 10 days (Rvb=16 days); format: organism-based; settings: in vivo, 240 h, time 10 day
[21] = Toxicity in mouse bearing intracranial tumor assessed as median survival time at 25 mg/kg, ip in presence of clorgyline for 10 days (Rvb=13.8 days); format: organism-based; settings: in vivo, 240 h, time 10 day
GL26 [22] = assay: Induction of apoptosis in mouse GL26 cells assessed as proteolytic cleavage of PARP1 incubated for 48 hrs by Western blot analysis; format: functional, cell-based; settings: dose 1.25-5 µM, DDE = dose-dependent effect
[23] = Toxicity in mouse bearing intracranial tumor assessed as median survival time at 50 mg/kg, ip in presence of clorgyline for 10 days (Rvb=13.8 days); format: organism-based; settings: in vivo, 240 h, time 10 day
Mus musculus [24] = assay: as §1; format: functional

Histone deacetylase 1, sequence (Q13547 whole entry, the tested form may be a part): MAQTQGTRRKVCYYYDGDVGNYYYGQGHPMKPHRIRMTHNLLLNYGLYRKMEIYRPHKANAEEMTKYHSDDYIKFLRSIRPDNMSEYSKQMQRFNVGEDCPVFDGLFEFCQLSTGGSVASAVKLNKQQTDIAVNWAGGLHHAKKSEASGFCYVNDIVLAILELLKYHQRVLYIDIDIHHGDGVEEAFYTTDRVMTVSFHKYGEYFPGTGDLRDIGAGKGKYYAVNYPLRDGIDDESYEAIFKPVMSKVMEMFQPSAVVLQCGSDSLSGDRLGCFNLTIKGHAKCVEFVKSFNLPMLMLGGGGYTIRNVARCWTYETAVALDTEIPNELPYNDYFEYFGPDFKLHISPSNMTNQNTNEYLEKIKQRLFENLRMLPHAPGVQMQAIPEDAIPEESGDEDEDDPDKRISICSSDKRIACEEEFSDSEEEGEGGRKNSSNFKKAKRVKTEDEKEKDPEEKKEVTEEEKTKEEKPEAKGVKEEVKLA
Histone deacetylase 2, sequence (Q92769 whole entry, the tested form may be a part): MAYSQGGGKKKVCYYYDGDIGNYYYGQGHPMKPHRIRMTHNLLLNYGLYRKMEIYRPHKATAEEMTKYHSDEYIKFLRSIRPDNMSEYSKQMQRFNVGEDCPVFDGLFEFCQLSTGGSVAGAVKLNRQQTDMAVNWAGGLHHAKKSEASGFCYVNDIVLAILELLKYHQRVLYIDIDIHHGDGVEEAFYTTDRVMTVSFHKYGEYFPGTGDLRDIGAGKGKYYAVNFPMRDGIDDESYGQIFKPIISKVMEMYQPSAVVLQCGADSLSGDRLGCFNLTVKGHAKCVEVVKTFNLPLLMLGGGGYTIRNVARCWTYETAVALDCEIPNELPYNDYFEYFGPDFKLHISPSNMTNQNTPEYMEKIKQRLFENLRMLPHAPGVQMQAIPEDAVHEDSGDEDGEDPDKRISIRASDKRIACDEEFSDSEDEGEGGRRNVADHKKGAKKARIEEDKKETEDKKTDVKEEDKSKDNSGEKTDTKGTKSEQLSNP

Row | IC50 (Histone deacetylase 2) | IC50 [7] | IC50 [11] | IC50 (Histone deacetylase 1) | IC50 (U-251 [16]) | IC50 (U-251 [17]) | IC50 (Histone deacetylase 8) | SMILES | Survival [12] | IC50 [15] | further results
1 | – | – | – | – | – | – | – | O=C(CCCCCCC(=O)Nc1ccccc1)NO [VORINOSTAT] | 13.8 days | 2200 nM | Survival [19]: 18 days; Survival [20]: 14 days; MST [21]: 13.8 days; Activity (GL26 [22]): Dde; MST [23]: 14.4 days
2 | 150 nM | 10 nM | 3250 nM | 30 nM | 120 nM | 600 nM | 50 nM | C#CCN(C)CCCOc1cc(NC(=O)CCCCCCC(=O)NO)ccc1Cl | – | 1150 nM | –
3 | 6680 nM | 60 nM | 430 nM | 3290 nM | 50600 nM | 8670 nM | 1780 nM | C#CCN(C)CCCOc1cc(NC(=O)CCCCCCC(=O)NO)c(Cl)cc1Cl | – | 74000 nM | –
4 | 4180 nM | 80 nM | 20 nM | 2310 nM | 11500 nM | 4780 nM | 1120 nM | C#CCN(C)CCCOc1cc(NC(=O)CCCCCCCC(=O)NO)ccc1Cl | – | 19300 nM | –
5 | 3210 nM | 90 nM | 23300 nM | 890 nM | 5820 nM | 4090 nM | 1470 nM | C#CCN(C)CCCOc1cccc(NC(=O)CCCCCCC(=O)NO)c1Cl | – | 1740 nM | –

Row | SMILES | IC50 (Histone deacetylase 2) | IC50 [7] | IC50 [11] | IC50 (Histone deacetylase 1) | IC50 (U-251 [16]) | IC50 (U-251 [17]) | IC50 (Histone deacetylase 8) | Survival [12] | IC50 [15] | further results
6 | C#CCN(C)CCCOc1cc(NCc2ccc(C(=O)NO)cc2)ccc1Cl | 4750 nM | 10 nM | 0.4 nM | 2510 nM | 10100 nM | 7120 nM | 1170 nM | 16.8 days | 2410 nM | Activity (GL26 [1]): Active; Activity (U-251 [2]): Dde; Activity (Mus musculus [3]): Active; Activity [4]: 90%; EC50 [5]: 6000 nM; Activity (Mus musculus [6]): Active; Survival [8]: 18 days; Survival [9]: 23 days; MST [10]: 14.25 days; MST [13]: 19.75 days; Activity (Mus musculus [14]): Active; Survival [18]: 20 days
7 | C#CCN(C)CCCOc1cc(NC(=O)CCCCCCCCC(=O)NO)ccc1Cl | 3630 nM | 160 nM | < 0.1 nM | 1420 nM | 33200 nM | 16200 nM | 2480 nM | 14.8 days | 1040 nM | Activity (GL26 [1]): Active; Activity (Mus musculus [3]): Active; Activity (Mus musculus [24]): Active; Activity (Mus musculus [6]): Active; Survival [8]: 16 days; Survival [9]: 21 days; MST [10]: 14.5 days; MST [13]: 18 days; Activity (Mus musculus [14]): Active
